Columns and labels:
Globodera rostochiensis = assay: Critical concentration test, Globodera rostochiensis (potatoes in infested soil); format: in vivo; details: active compound concentrations of 2.5, 5 and 10 ppm in soil; potato root cysts after six weeks; 18° C.
Method: Critical concentration test
Test nematode: Globodera rostochiensis
(§1) Solvent: 3 parts by weight of acetone
(§2) Emulsifier: 1 part by weight of alkylaryl polyglycol ether
The treated soil is filled into pots, potatoes are planted and the pots are kept at a greenhouse temperature of 18° C.

Meloidogyne incognita = assay: Critical concentration test/nematodes, Meloidogyne incognita (lettuce in infested soil); format: in vivo; details: active compound concentration of 1.25 ppm-10 ppm in soil; lettuce root galls after four weeks; 27° C.
Method: Critical concentration test/nematodes
Test nematode: Meloidogyne incognita
as §1, §2
The treated soil is filled into pots, lettuce is sown and the pots are kept at a greenhouse temperature of 27° C.

LD50 on rats (oral) = details: rat, in vivo, stomach tube, in polyethylene glycol Lutrol, read-out: LD50 (mg of active compound/kg of body weight)
Method: LD50 values on rats (oral)
The values were determined in the customary manner.

[1] = known from U.S. Pat. No. 2,978,479 and Pesticide Manual; cited from earlier work

For CC(NC(=O)c1c(F)cccc1F)C(F)(F)F (stereo not drawn) [Example 1, 2,6-difluorobenzoic acid N-(1,1,1-trifluoro-prop-2-yl)-amide], the degree of effectiveness (Globodera rostochiensis) was 95% and the degree of effectiveness (Meloidogyne incognita) was 95%.
With O=C(NCC(F)(F)F)c1c(F)cccc1F [Example 5] the degree of effectiveness (Globodera rostochiensis) was 95%.
CN(CC(F)(F)F)C(=O)c1c(F)cccc1F [Example 6] gave a degree of effectiveness (Meloidogyne incognita) of 95%.
For CC(NC(=O)c1ccccc1Cl)C(F)(F)F (stereo not drawn) [Example 29], the degree of effectiveness (Globodera rostochiensis) was 95% and the degree of effectiveness (Meloidogyne incognita) was 95%.
For O=C(NC1(C(F)(F)F)CC1)c1c(F)cccc1F [Example 33], the degree of effectiveness (Globodera rostochiensis) was 95% and the degree of effectiveness (Meloidogyne incognita) was 95%.
CC(NC(=O)c1c(F)cccc1F)C(F)(F)F (stereo not drawn) [drawing 61] showed an LD50 (LD50 on rats (oral)) greater than 1000 mg/kg.
In the case of CCOP(=O)(NC(C)C)Oc1ccc(SC)c(C)c1 (stereo not drawn) [fenamiphos, O-ethyl-O-(3-methyl-4-methylthio-phenyl)-N-isopropyl-phosphoric acid ester-amide, reference compound], the “insecticidal and nematicidal properties” value [1] is given as “very good”, the LD50 (LD50 on rats (oral)) is given as 10 to 20 mg/kg and the degree of effectiveness (Meloidogyne incognita) is given as 95%.

Source: US4840969A, “N-substituted benzamides” (Bayer Aktiengesellschaft, priority 1986, dated 1989)
